Reference: patent US20220211846A1, “ABT-165 IN COMBINATION WITH FOLINIC ACID, 5-FLUOROURACIL, AND IRINOTECAN FOR THE TREATMENT OF CANCERS” (AbbVie Biotherapeutics Inc., priority 2017, published 2022)
Marks after values point to notes of the source that are not given here.

Key:
human VEGF = assay: Binding affinity to VEGF
[1] = test system: HCT-116 human colon xenograft tumors; assay: HCT-116 colon xenograft model; type: in vivo, female SCID mice
Description: The effect of anti-DLL4-VEGF DVD-Igs (ABT-165) in combination with chemotherapy on tumor growth was evaluated on HCT-116 human colon xenograft tumors in female SCID mice. Briefly, 5×10^6 cells were inoculated subcutaneously into the right hind flank. Tumors were allowed to establish for 14 days, at which point tumor volume was determined using electronic caliper measurements using the formula: L×W^2/2. Mice were allocated into treatment groups (n=9 per group) so that each cohort had equivalent mean tumor volume of 192 mm^3 prior to initiation of therapy. Animals were dosed with 5-fluorouracil (5-FU), folinic acid (leucovorin), irinotecan, anti-VEGF mAb (AB014), and/or anti-DLL4-VEGF DVD-Ig (ABT-165) at the dose and schedule in Table 4. An anti-tetanus toxoid mAb (AB095) was used as a non-targeting isotype control. Tumor volume was measured twice a week for the duration of the experiment.

human DLL4 = human DLL4 (Homo sapiens, UniProt Q9NR61); assay: Binding affinity to DLL4
[2] = test system: DLL4-mediated Notch-1 activation; assay: Inhibition of DLL4-mediated Notch-1 activation; type: cell-based
FcRn = FcRn (Homo sapiens, UniProt P55899); assay: Binding to FcRn; details: compared with human IgG1
[3] = test system: human peripheral blood cells (PBC) from normal donors; assay: Cytokine release by human peripheral blood cells; type: cell-based; details: within expected range of negative control IgG1 antibodies

Sequence of human VEGF (P15692 207-320 limits assumed): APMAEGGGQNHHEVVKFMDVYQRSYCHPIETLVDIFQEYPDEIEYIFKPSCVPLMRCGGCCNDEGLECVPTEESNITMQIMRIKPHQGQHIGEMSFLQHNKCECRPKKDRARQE

- affinity to VEGF (human VEGF): nanomolar affinities
- affinity to DLL4 (human DLL4): nanomolar affinities
Substance: ABT-165: dual-variable domain humanized immunoglobulin with dual specificity for DLL4 and VEGF; light chain SEQ ID No. 15, heavy chain SEQ ID No. 16
- efficacy compared to anti-VEGF monoclonal antibody (alone or each with FOLFIRI) ([1]; colon cancer xenograft model, FIG. 1): superior efficacy
- % TGI (percent tumor growth inhibition = 100 − (T/C × 100)) ([1]; day 26 post size match, mean tumor volume vs treatment control group, dose and regimen as in Table 4, n=9 per group): 67* %
- inhibition of DLL4-mediated Notch-1 activation [2]: potent inhibition
- binding to FcRn (FcRn): pH-dependent binding to FcRn within the expected range of human IgG1
- ability to stimulate cytokine release [3]: low ability
